Assays:
hPPAR alpha = biological target: T1, hPPAR alpha (Homo sapiens, UniProt Q07869); assay: Transient transfection (transactivation) assay in CV-1 cells, hPPAR alpha; format: cell-based; details: GAL4 chimera, SPAP reporter, read-out: EC50 nM HPPARα
T1 construct: expressed in transfected cells; host or cells: CV-1 cells
T1 sequence (Q07869 239-466 limits assumed): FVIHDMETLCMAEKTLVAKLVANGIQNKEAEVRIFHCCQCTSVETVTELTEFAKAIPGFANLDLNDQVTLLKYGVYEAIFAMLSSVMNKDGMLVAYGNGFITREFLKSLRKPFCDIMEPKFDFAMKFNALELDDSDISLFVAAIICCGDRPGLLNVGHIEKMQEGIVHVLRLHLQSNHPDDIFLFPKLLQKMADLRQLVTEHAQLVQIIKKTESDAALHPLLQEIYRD
Text: (§1) Compounds were screened for functional potency in transient transfection assays in CV-1 cells for their ability to activate the PPAR subtypes (transactivation assay). A previously established chimeric receptor system was utilized to allow comparison of the relative transcriptional activity of the receptor subtypes on the same target gene and to prevent endogenous receptor activation from complicating the interpretation of results. See, for example, Lehmann, J. M.; Moore, L. B.; Smith-Oliver, T. A.; Wilkison, W. O.; Willson, T. M.; Kliewer, S. A., An antidiabetic thiazolidinedione is a high affinity ligand for peroxisome proliferator-activated receptor gamma (PPARgamma), J. Biol. Chem., 1995, 270, 12953–6. The ligand binding domains for murine and human PPAR alpha, PPAR gamma, and PPAR delta were each fused to the yeast transcription factor GAL4 DNA binding domain. CV-1 cells were transiently transfected with expression vectors for the respective PPAR chimera along with0 a reporter construct containing five copies of the GAL4 DNA binding site driving expression of secreted placental alkaline phosphatase (SPAP) and β-galactosidase. After 16 h, the medium was exchanged to DME medium supplemented with 10% delipidated fetal calf serum and the test compound at the appropriate concentration. […]

hPPAR delta = biological target: T2, hPPAR delta (Homo sapiens, UniProt Q03181); assay: Transient transfection (transactivation) assay in CV-1 cells, hPPAR delta; format: cell-based; details: GAL4 chimera, SPAP reporter, read-out: EC50 nM HPPARδ
T2 construct: expressed in transfected cells; host or cells: CV-1 cells
T2 sequence (Q03181 211-439 limits assumed): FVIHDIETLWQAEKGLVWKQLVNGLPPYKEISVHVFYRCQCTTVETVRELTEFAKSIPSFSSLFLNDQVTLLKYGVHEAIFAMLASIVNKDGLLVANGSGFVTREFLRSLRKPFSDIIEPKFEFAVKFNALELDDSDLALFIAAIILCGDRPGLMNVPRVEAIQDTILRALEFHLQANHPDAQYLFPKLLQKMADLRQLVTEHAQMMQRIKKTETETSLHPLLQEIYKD
Text: as §1

hPPAR gamma = biological target: T3, hPPAR gamma (Homo sapiens, UniProt P37231); assay: Transient transfection (transactivation) assay in CV-1 cells, hPPAR gamma; format: cell-based; details: GAL4 chimera, SPAP reporter, read-out: EC50 nM HPPARy
T3 construct: expressed in transfected cells; host or cells: CV-1 cells
T3 sequence (P37231 238-503 limits assumed): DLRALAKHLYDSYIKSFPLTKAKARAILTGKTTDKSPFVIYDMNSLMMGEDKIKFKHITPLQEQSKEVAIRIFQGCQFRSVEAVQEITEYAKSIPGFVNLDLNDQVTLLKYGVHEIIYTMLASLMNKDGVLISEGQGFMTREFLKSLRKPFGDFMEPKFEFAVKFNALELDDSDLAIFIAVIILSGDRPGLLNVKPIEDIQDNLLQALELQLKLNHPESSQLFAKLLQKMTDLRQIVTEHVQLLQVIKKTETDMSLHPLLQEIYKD
Text: as §1

| Compound | EC50 (hPPAR alpha) [nM] | EC50 (hPPAR delta) [nM] | EC50 (hPPAR gamma) [nM] | melting point [°C] |
| --- | --- | --- | --- | --- |
| CCc1ccc(-c2sc(C(=O)NCc3ccc(OC(C)(C)C(=O)O)cc3)nc2C)cc1 [Example 2, 2-methyl-2–[4-{[(4-methyl-5-[4-ethylphenyl]thiazol-2-ylcarbonyl)amino]methyl}phenoxy]propionic Acid] | 5 | 8740 | 700 |  |
| CCOC(=O)C(C)(C)Oc1ccc(CNC(=O)c2nc(C)c(-c3ccc(F)cc3)s2)cc1 [Example 3, 2-methyl-2-[4-{[(4-methyl-5-[4-fluorophenyl]thiazol-2-ylcarbonyl)amino]methyl}phenoxy]propionic Acid Ethyl Ester] |  |  |  | 97 |
| Cc1nc(C(=O)NCc2ccc(OC(C)(C)C(=O)O)cc2)sc1-c1ccc(F)cc1 [Example 4, 2-methyl-2-[4-{[(4-methyl-5-[4-fluorophenyl]thiazol-2-ylcarbonyl)amino]methyl}phenoxy]propionic Acid] | 61 | 10000 | 5880 | 122 |

Source: US7157479B2, “Oxazol/thiazol-derivatives activators of the hPPAR-alpha receptor” (Glaxo Group Limited, priority 2001, dated 2007)
